Data as given in US8802737B2, “Method for improving tetracycline-resistance of Acinetobacter baumannii” (priority 2011, dated 2014).
Values after ≈ are worked out from the molar mass of the structure shown.

Experiments:
Assay type in all cases: cell-based, Acinetobacter baumannii
A. baumannii strain AB4 = assay: MIC by broth micro-dilution, clinical strain AB4; conditions: for MIC, ginger compound only: strain AB4, 10^5 cfu/mL, no tetracycline; for MIC: Acinetobacter baumannii, read-out: susceptibilities to antibiotics (MICs)
Excerpt: (§1) Precisely, five strains of clinical A. baumannii, named AB1, AB2, AB4, AB5, AB6, are isolated from patients in Kaohsiung Medical University Hospital, 1600-bed tertiary referral medical center in Taiwan, wherein each of strains is from different clones by genotyping and collected from different samples, for example, sputum, wound pus, blood, pleural fluid, and bronchial washing. All of the five strains of A. baumannii are stored in trypticase soy broth (Difco Laboratories, Detroit, Mich.) with 20% glycerol at −80° C. until the following use.
(§2) Some of the antibiotics including ampicillin, cefazolin and cefmetazole have no MIC breakpoints according to CLSI.
(§3) In the present embodiment, 10^5 cfu/mL of each strain of A. baumannii are prepared, and the medication test of the present invention is carried out by respectively providing the medication of the present invention and the ginger compound only to each strain of A. baumannii. In this way, the antimicrobial activities of the medication of the present invention and of the ginger compound only are monitored and recorded respectively.

A. baumannii strain AB1 = assay: MIC by broth micro-dilution, clinical strain AB1; conditions: for MIC, ginger compound only: strain AB1, 10^5 cfu/mL, no tetracycline; for MIC: Acinetobacter baumannii, read-out: susceptibilities to antibiotics (MICs)
Excerpt: as §1, §2, §3

A. baumannii strain AB5 = assay: MIC by broth micro-dilution, clinical strain AB5; conditions: for MIC, ginger compound only: strain AB5, 10^5 cfu/mL, no tetracycline; for MIC: Acinetobacter baumannii, read-out: susceptibilities to antibiotics (MICs)
Excerpt: as §1, §2, §3

A. baumannii strain AB2 = assay: MIC by broth micro-dilution, clinical strain AB2; conditions: for MIC, ginger compound only: strain AB2, 10^5 cfu/mL, no tetracycline; for MIC: Acinetobacter baumannii, read-out: susceptibilities to antibiotics (MICs)
Excerpt: as §1, §2, §3

A. baumannii strain AB6 = assay: MIC by broth micro-dilution, clinical strain AB6; conditions: for MIC, ginger compound only: strain AB6, 10^5 cfu/mL, no tetracycline; for MIC: Acinetobacter baumannii, read-out: susceptibilities to antibiotics (MICs)
Excerpt: as §1, §2, §3

Compound | MIC (A. baumannii strain AB4; strain AB4, LB broth) [µg/mL] | MIC (A. baumannii strain AB1; strain AB1, LB broth) [µg/mL] | MIC (A. baumannii strain AB5; strain AB5, LB broth) [µg/mL] | MIC (A. baumannii strain AB2; strain AB2, LB broth) [µg/mL] | MIC (A. baumannii strain AB6; strain AB6, LB broth) [µg/mL] | also measured
CCCCCC(=O)CC(=O)/C=C/c1ccc(O)c(OC)c1 [[6]-dehydrogingerdione] | – | – | – | – | – | MIC, ginger compound only (A. baumannii strain AB4): 137.6 µM (≈ 40 µg/mL); MIC, ginger compound only (A. baumannii strain AB1): 198.1 µM (≈ 57.5 µg/mL); MIC, ginger compound only (A. baumannii strain AB5): 178.5 µM (≈ 51.8 µg/mL); MIC, ginger compound only (A. baumannii strain AB2): 166.2 µM (≈ 48.3 µg/mL); MIC, ginger compound only (A. baumannii strain AB6): 207.1 µM (≈ 60.1 µg/mL)
CO/N=C(\C(=O)N[C@@H]1C(=O)N2C(C(=O)[O-])=C(C[N+]3(C)CCCC3)CS[C@H]12)c1csc(N)n1 [Cefepime] | ≥ 64 | ≥ 64 | ≥ 64 | ≥ 64 | ≥ 64 | –
CC(C)(O/N=C(\C(=O)N[C@@H]1C(=O)N2C(C(=O)[O-])=C(C[n+]3ccccc3)CS[C@H]12)c1csc(N)n1)C(=O)O [Ceftazidime] | ≥ 64 | ≥ 64 | ≥ 64 | ≥ 64 | ≥ 64 | –
C[C@@H](O)[C@H]1C(=O)N2C(C(=O)O)=C(S[C@@H]3CN[C@H](C(=O)N(C)C)C3)[C@H](C)[C@H]12 [Meropenem] | ≥ 16 | ≥ 16 | ≥ 16 | ≥ 16 | ≥ 16 | –
Gentamicin | – | – | – | – | – | susceptibilities to antibiotics (MICs) (A. baumannii strain AB4; strain AB4, LB broth): ≧16 μg/ml; susceptibilities to antibiotics (MICs) (A. baumannii strain AB1; strain AB1, LB broth): ≧16 μg/ml; susceptibilities to antibiotics (MICs) (A. baumannii strain AB5; strain AB5, LB broth): ≧16 μg/ml; susceptibilities to antibiotics (MICs) (A. baumannii strain AB2; strain AB2, LB broth): ≧16 μg/ml; susceptibilities to antibiotics (MICs) (A. baumannii strain AB6; strain AB6, LB broth): ≧16 μg/ml
CCCCC[C@H](O)CC(=O)CCc1ccc(O)c(OC)c1 [[6]-gingerol] | – | – | – | – | – | MIC, ginger compound only (A. baumannii strain AB4): 297.1 µM (≈ 87.5 µg/mL); MIC, ginger compound only (A. baumannii strain AB1): 226.4 µM (≈ 66.7 µg/mL); MIC, ginger compound only (A. baumannii strain AB5): 277.3 µM (≈ 81.6 µg/mL); MIC, ginger compound only (A. baumannii strain AB2): 226.8 µM (≈ 66.8 µg/mL); MIC, ginger compound only (A. baumannii strain AB6): 275.6 µM (≈ 81.1 µg/mL)
CO/N=C(\C(=O)N[C@@H]1C(=O)N2C(C(=O)O)=C(CSc3nc(=O)c(=O)[nH]n3C)CS[C@H]12)c1csc(N)n1 [Ceftriaxone] | ≥ 64 | ≥ 64 | ≥ 64 | ≥ 64 | ≥ 64 | –
CC1(C)S[C@@H]2[C@H](NC(=O)[C@H](N)c3ccccc3)C(=O)N2[C@H]1C(=O)O [Ampicillin] | ≥ 512 | ≥ 512 | ≥ 512 | ≥ 512 | ≥ 512 | –
CCCCC/C=C/C(=O)CCc1ccc(O)c(OC)c1 [[6]-shogaol] | – | – | – | – | – | MIC, ginger compound only (A. baumannii strain AB4): 279.7 µM (≈ 77.3 µg/mL); MIC, ginger compound only (A. baumannii strain AB1): 208.1 µM (≈ 57.5 µg/mL); MIC, ginger compound only (A. baumannii strain AB5): 261.3 µM (≈ 72.2 µg/mL); MIC, ginger compound only (A. baumannii strain AB2): 274.0 µM (≈ 75.7 µg/mL); MIC, ginger compound only (A. baumannii strain AB6): 347.2 µM (≈ 96 µg/mL)
CO[C@@]1(NC(=O)CSCC#N)C(=O)N2C(C(=O)O)=C(CSc3nnnn3C)CS[C@@H]21 [Cefmetazole] | ≥ 64 | ≥ 64 | ≥ 64 | ≥ 64 | ≥ 64 | –
CN(C)[C@@H]1C(O)=C(C(N)=O)C(=O)[C@@]2(O)C(O)=C3C(=O)c4c(O)cccc4[C@@](C)(O)[C@H]3C[C@@H]12 [Tetracycline] | ≥ 512 | 32 (≈ 72 µM) | ≥ 512 | ≥ 512 | ≥ 512 | –
CCN1CCN(C(=O)N[C@@H](C(=O)N[C@@H]2C(=O)N3[C@@H]2SC(C)(C)[C@@H]3C(=O)O)c2ccccc2)C(=O)C1=O [Piperacillin] | ≥ 128 | ≥ 128 | ≥ 128 | ≥ 128 | ≥ 128 | –
CCCCCCCCC[C@H](O)CC(=O)CCc1ccc(O)c(OC)c1 [[10]-gingerol] | – | – | – | – | – | MIC, ginger compound only (A. baumannii strain AB4): 196.0 µM (≈ 68.7 µg/mL); MIC, ginger compound only (A. baumannii strain AB1): 144.6 µM (≈ 50.7 µg/mL); MIC, ginger compound only (A. baumannii strain AB5): 207.5 µM (≈ 72.7 µg/mL); MIC, ginger compound only (A. baumannii strain AB2): 162.3 µM (≈ 56.9 µg/mL); MIC, ginger compound only (A. baumannii strain AB6): 198.1 µM (≈ 69.4 µg/mL)
Cc1nnc(SCC2=C(C(=O)O)N3C(=O)[C@@H](NC(=O)Cn4cnnn4)[C@H]3SC2)s1 [Cefazolin] | ≥ 64 | ≥ 64 | ≥ 64 | ≥ 64 | ≥ 64 | –
